Source: patent publication US20240399118A1, “INTRALUMINAL LOCAL DRUG DELIVERY” (Isola Therapeutics, Inc., priority 2023, published 2024)
Where two headings read alike, the source gives them in different places. Values belong to the compound of their own block, whether it stands above or below them.

Experiments:
[1] = test system: porcine model; conditions: pig, in vivo
Description: Animals tested were of the porcine species from the breed Yorkshire Cross. The animals underwent surgery to place two (2) CVL catheters, 1 for infusion and 1 for plasma collection. Each animal received ˜1 L of lavage solution. The animals were allowed to recover and stabilize. Once the animals were awake and mobile, the animals were infused with 50 mcg/mL for 30 minutes.

[2] = cited from earlier work
[3] = Plasma concentration of diclofenac after local lavage delivery to the lungs in a porcine model (LC/MS); assay type: in vivo, porcine (Yorkshire Cross)
Description: Each animal received ˜1 L of lavage solution. The animals were allowed to recover and stabilize. […] Spectra were compared to the validated protocol and standard curve generated for the study.

Structure (SMILES): C[C@@H]1C[C@H]2[C@@H]3CCC4=CC(=O)C=C[C@]4(C)[C@@]3(F)[C@@H](O)C[C@]2(C)[C@@]1(O)C(=O)COP(=O)([O-])[O-].[Na+].[Na+] [Dexamethasone sodium phosphate, disodium; [2-[(8S,9R,10S,11S,13S,14S,16R, 17R)-9-fluoro-11,17-dihydroxy-10,13,16-trimethyl-3-oxo-6,7,8, 11, 12, 14, 15, 16-octahydrocyclopenta[a]phenanthren-17-yl]-2-oxoethyl] phosphate]
tolerability [1]: well tolerated | solubility in water ([2]; water): 100 to 1000 mg/mL | solubility in water (in words) ([2]; water): freely soluble

Structure (SMILES): O=C(O)Cc1ccccc1Nc1c(Cl)cccc1Cl [Diclofenac sodium]
solubility in water (in words) ([2]; water at 25° C.): sparingly soluble

time of peak plasma concentration post-lung infusion ([3]; local lung delivery at 50 mcg/mL): 5 min | plasma Cmax as percent of the plasma Cmax resulting from systemic administration ([3]; local vs systemic administration): less than 0.05% | Plasma Concentration (ng/mL) by Time (min): 5 min ([3]; swine, local lung administration 50 mcg/mL, 5 min, animal 24P0133): 3430 ng/mL | Plasma Concentration (ng/mL) by Time (min): 15 min ([3]; swine, local lung administration 50 mcg/mL, 15 min, animal 24P0133): 3050 ng/mL | Plasma Concentration (ng/mL) by Time (min): 30 min ([3]; swine, local lung administration 50 mcg/mL, 30 min, animal 24P0133): 2410 ng/mL | Plasma Concentration (ng/mL) by Time (min): 0 min ([3]; swine, local lung administration 50 mcg/mL, ~1 L lavage solution, 0 min (baseline), animal 24P0133): BLQ | clinical observations [1]: no abnormal clinical observations
Structure (SMILES): O=C(O)Cc1ccccc1Nc1c(Cl)cccc1Cl [Diclofenac, 2-[2-(2,6-dichloroanilino)phenyl]acetic acid]
adverse events [1]: did not have any adverse events | lung tissue damage [1]: no signs of lung tissue damage
